Ki data for 15 compounds are collected here from ChEMBL document CHEMBL1151740, “Structurally constrained hybrid derivatives containing octahydrobenzo[g or f]quinoline moieties for dopamine D2 and D3 receptors: binding characterization at D2/D3 receptors and elucidation of a pharmacophore model” (J Med Chem, 2008).

As usually defined, the Ki is a measure of affinity in units of concentration, obtained from inhibition or displacement. A high value points to lower affinity.

Assay [1] deals with D(2) dopamine receptor (Rattus norvegicus, UniProt P61169). The assay is described as follows: Displacement of [3H]Spiperone from rat dopamine D2L receptor expressed in HEK293 cells. In kind it is cell-based. For orientation: In a radioligand displacement assay an active substance lowers the binding of a labelled ligand.
The target in assay [2] is D(3) dopamine receptor (Rattus norvegicus, UniProt P19020). The assay is described as follows: Displacement of [3H]Spiperone from rat dopamine D3 receptor expressed in HEK293 cells. In kind it is cell-based.
D(3) dopamine receptor, sequence (P19020 whole entry): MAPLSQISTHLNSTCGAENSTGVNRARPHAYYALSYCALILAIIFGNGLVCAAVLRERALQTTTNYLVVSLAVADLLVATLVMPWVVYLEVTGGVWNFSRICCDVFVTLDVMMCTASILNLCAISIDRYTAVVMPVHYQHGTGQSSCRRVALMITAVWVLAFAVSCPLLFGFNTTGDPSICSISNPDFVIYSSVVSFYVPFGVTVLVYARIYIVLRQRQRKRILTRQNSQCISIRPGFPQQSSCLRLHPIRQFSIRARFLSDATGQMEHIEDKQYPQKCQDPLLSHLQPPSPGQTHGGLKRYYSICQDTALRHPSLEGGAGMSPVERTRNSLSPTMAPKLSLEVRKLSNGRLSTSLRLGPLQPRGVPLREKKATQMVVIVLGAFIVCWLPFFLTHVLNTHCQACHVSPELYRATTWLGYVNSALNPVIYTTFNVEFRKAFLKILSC

D(2) dopamine receptor, sequence (P61169 whole entry): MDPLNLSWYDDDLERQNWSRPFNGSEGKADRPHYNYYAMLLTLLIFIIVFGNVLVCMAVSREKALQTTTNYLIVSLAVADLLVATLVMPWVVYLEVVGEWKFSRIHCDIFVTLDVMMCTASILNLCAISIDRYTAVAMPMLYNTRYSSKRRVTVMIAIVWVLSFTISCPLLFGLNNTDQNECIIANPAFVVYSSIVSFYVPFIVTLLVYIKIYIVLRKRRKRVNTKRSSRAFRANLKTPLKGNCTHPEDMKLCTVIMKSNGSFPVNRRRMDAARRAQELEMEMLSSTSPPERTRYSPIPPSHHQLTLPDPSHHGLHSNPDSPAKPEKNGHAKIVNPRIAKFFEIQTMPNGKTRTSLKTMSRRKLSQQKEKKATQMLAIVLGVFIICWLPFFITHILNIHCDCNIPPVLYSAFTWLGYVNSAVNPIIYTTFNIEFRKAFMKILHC

On to `Oc1ccc2c(c1)C[C@H]1[C@@H](CCCN1CCCCN1CCN(c3ccccc3)CC1)C2` (racemic), for which the inhibition constant Ki in assay [1] stood at 289 nM; in assay [2] it was 102 nM.
Regarding `CCCN(CCN1CCN(c2ccccc2)CC1)[C@@H]1CCc2nc(N)sc2C1`, the values for the Ki in assay [1] and in assay [2] were 1980 nM and 44 nM, respectively.
Taken in the same sequence, the figures for `CCCN(CCN1CCN(c2ccc(-c3ccccc3)cc2)CC1)[C@H]1CCc2nc(N)sc2C1` were 234 nM and 0.925 nM.
For `Oc1cccc2c1C[C@@H]1CCCN(CCN3CCN(c4cccc(Cl)c4Cl)CC3)[C@H]1C2` (racemic), in that order: 136 nM and 168 nM.
For `Oc1cccc2c1CC[C@@H]1[C@@H]2CCCN1CCN1CCN(c2ccccc2)CC1`, in that order: 835 nM and 89.3 nM.
For the compound `CCCN(CCN1CCN(c2ccccc2)CC1)[C@H]1CCc2ccc(O)cc2C1`, the Ki in assay [1] came to 809 nM; in assay [2], 38.6 nM.
For the compound `Oc1ccc2c(c1)C[C@@H]1[C@@H](CCCN1CCN1CCN(c3cccc(Cl)c3Cl)CC1)C2` (racemic), the results for the Ki in assay [1] and in assay [2] were 148 nM and 187 nM, respectively.
Regarding `CCCN1CCC[C@H]2c3cccc(O)c3CC[C@@H]21` (relative stereo), the inhibitory constant (Ki) in assay [1] turned out to be 347 nM; in assay [2], 96 nM.
For `Oc1ccc2c(c1)C[C@H]1[C@@H](CCCN1CCN1CCN(c3ccccc3)CC1)C2` (racemic), in that order: 2520 nM and 473 nM.
Taken in the same sequence, the figures for `Oc1cccc2c1CC[C@H]1[C@H]2CCCN1CCN1CCN(c2ccccc2)CC1` were 23.6 nM and 4.95 nM.
On to `CCCN1CCC[C@@H]2Cc3c(O)cccc3C[C@H]21` (racemic), for which the Ki was determined as 2780 nM in assay [1] and 395 nM in assay [2].
For `Oc1cccc2c1C[C@@H]1CCCN(CCN3CCN(c4ccccc4)CC3)[C@H]1C2` (racemic), in that order: 1710 nM and 736 nM.
Taken in the same sequence, the figures for `Oc1ccc2c(c1)C[C@H]1[C@@H](CCCN1CCN1CCN(c3cccc(Cl)c3Cl)CC1)C2` (racemic) were 338 nM and 256 nM.
Taken in the same sequence, the figures for `CCCN(CCN1CCN(c2ccccc2)CC1)[C@H]1CCc2nc(N)sc2C1` were 243 nM and 4.15 nM.
Consider `Oc1ccc2c(c1)[C@@H]1CCCN(CCN3CCN(c4ccccc4)CC3)[C@H]1CC2`, for which the Ki in assay [1] came to 219 nM; in assay [2], 72.2 nM.
